Article PMC6813295, “A tumour-selective cascade activatable self-detained system for drug delivery and cancer imaging” (Nature Communications, 2019)
Where a SMILES comes first, the peptide text is derived from it. The star is where a group is joined. X1 = CC1(C)C(=CC=C2CCCC(C=CC3=[N+](CCCCCC(=O)O)c4ccccc4C3(C)C)=C2*)N(CCCCCC(=O)O)c2ccccc21

Legend:
[1] = tested on: H460 tumour-bearing nude mice; assay: Pharmacokinetic parameters in tumour (DAS2.0); format: in vivo, mouse; details: IV 14 mg/kg; for AUC0→t / AUC0→∞ / CL / MRT(0-t), mean retention time / Tmax / t1/2β, elimination half-life: in tumour, means ± SD n = 3; for AUC0→t: 0–48 h
Protocol: Animal experiments were performed in accordance with the Guide for the Care and Use of Laboratory Animals and approved by the Institutional Animal Care and Use Committee (IACUC) of the National Center for Nanoscience and Technology (NCNST), China. Female Balb/c nude mice (6–8 weeks, 18–22 g) were purchased from Vital River Laboratory Animal Technology Co. Ltd. H460 cells were subcutaneously implanted into these mice on the right flank. Then the mice were randomly grouped (n = 3). When the tumour grew to a single aspect of about 0.5 cm, we injected the molecules 1, 2 and 3 intravenously in the same dose of 14 mg/kg in PBS solution, respectively. Fluorescence images were measured by a Maestro II in vivo imaging system (CRi) at 1, 2, 4, 6, 8, 12, 24, 48, 72, 96 and 120 h post injection. Further, tumours and other major organs (i.e., heart, liver, spleen, lung and kidney) were collected for ex vivo fluorescence imaging at 48 h post injection. The organ biodistribution of the 1, 2 and 3 was examined using H460 xenografts mice. The mice were sacrificed at 2, 4, 8, 12, 24 or 48 h post injection. Finally, all the major organs and tumour were collected, weighed, and homogenized (0.3 mL of lysis buffer per 100 mg of tissues). The homogeneous tissue solutions were obtained for fluorescence imaging by IVIS Spectrum CT. Known concentrations of compound 1, 2 or 3 are used to make the standard curve (concentration from 2.8 to 25.2 μg/mL), the “Predicted R-Squared” value of 0.99. Then we utilized this standard curve to measure the molecule content in each tissue. In addition, EJ xenograft tumour mice model was built, as above described, to validate the generality of the strategy.
Supplementary Table 1︱Pharmacokinetic parameters of intravenously-administered 1, 2 and 3 in […]
Data are presented as means ± SD (n = 3). t1/2β, elimination half -life; CL, plasma clearance; Cmax, maximum concentration; Tmax, peak time ; MRT: mean retention time; AUC(0 -t), area under the 1, 2 and 3 concentration-time curve from time zero to the last quantifiable value; AUC(0 -∞), area und er the 1, 2 and 3 concentration -time curve from time zero to infinity, which represents the total drug exposure over time. h, hour(s).

H460 cells [2] = format: cell-based, human; details: 50 μM for 6, 12, 24 h (flow cytometry), 1–100 μM 24 h (CCK-8)
Protocol: lysed in an ice bath at 1℃, 16000g for 15 minutes, the supernatant was transferred to a pre-cooled centrifuge tube in an ice bath. For each group, 20 μM (final concentration) Ac-DEVD-AMC and 100μl cell lysate were added to 1 ml Protease Assay Buffer [20 mM HEPES (pH 7.5), 10% glycerol, 2 mM DTT]. The reaction mixtures were incubated for 1 hour at 37 °C. The AMC released from Ac-DEVD-AMC was measured using a spectrofluorometer with an excitation wavelength of 380 nm and an emission wavelength range of 400-550 nm.
Flow cytometry analysis. A density of 1 × 10^5 H460 cells per well were seeded in the 6-well plates in 1640 medium which contains 10% fetal bovine serum and 1% penicillin–streptomycin, then cultured at 37 °C in a humidified atmosphere with 5% CO 2 for 16 h. Then molecules 1, 2 and 3 (50 μM) were added to each well, and the cells were incubated for additional 6 h, 12 h and 24 h, respectively. The apoptosis of the collected cells stained by Annexin V -FITC and PI (propidium iodide) was studied by […]
Cell viability assays . CCK-8 (cell counting kit-8) assay was carried out to investigate the cell viability.
H460 cells were utilized to evaluate the cytotoxicity of molecules 1, 2 and 3 by the CCK-8 assay.
Molecules 1, 2 and 3 were dispersed in 1640 medium with different concentration s such as 1, 5, 10, 30, 60 and 100 μM. The cells with the density of 5 × 10^4 cells per well were seeded in the 96 -well plates in 1640 medium containing 10% fetal bovine serum and 1% penicillin –streptomycin, then cultured at 37 °C in a humidified atmosphere with 5% CO 2 for 16 h. […]
Microplate reader was used to measure the UV -Vis absorptions of sample wells (A sample), Ablack and control wells (A control) at a test wavelength of 450 nm and a reference wavelength of 690 nm, […]
Blood circulation. […] The supernatant of the blood samples was collected by centrifugation at 10 000 rpm for 10 min , and the content of compound 1, 2 and 3 in the supernatant w ere determined using fluorescence spectrophotometric measurement. […]
3 h. […] Morphologies of liposomes were measured by Tecnai G20 electron microscope. […]

H460 cells [3] = assay: Flow cytometry labelling ratio of subcultured cells; format: cell-based, human; details: 50 μM, 37 °C, 2 h; for labelling ratio of H460 cells at the third generation: subcultured at 24 h interval
Protocol: Supplementary Figure 24∣Flow cytometry histograms of H460 cells treated with molecule 1, 2 and
3 (50 μM) at 37 °C for 2 h, respectively, and then subcultured for designated generations (a 24 h
interval). The untreated H460 cells were used as the control group.
(1 picture or pasted object on this page, not shown here)

With `CC[C@H](C)[C@H](NC(=O)[C@@H]1CCCN1C(=O)[C@@H](NC(=O)[C@H](C)N)C(C)C)C(=O)N[C@@H](C)C(=O)N[C@@H](CCC(N)=O)C(=O)N[C@@H](CCCCN)C(=O)N[C@@H](CC(=O)O)C(=O)N[C@@H](CCC(=O)O)C(=O)N[C@H](C(=O)N[C@@H](CC(=O)O)C(=O)N[C@@H](CCC(=O)O)C(=O)N[C@@H](CSC1=C(C=CC2=[N+](CCCCCC(=O)O)c3ccccc3C2(C)C)CCCC1=CC=C1N(CCCCCC(=O)O)c2ccccc2C1(C)C)C(=O)NCC(=O)O)C(C)C` [molecule 3] (H-AVPIAQKDEVDEC(X1)G-OH; N-terminus assumed) the AUC0→t [1] was 26.6 ± 8.9 mg·h/g, the “AUC0→∞” value [1] was 34.6 ± 12.2 mg·h/g and the CL [1] was 7.33 ± 2.5 mL/min/kg. For the same compound, the “MRT(0-t), mean retention time” value [1] was 10.7 ± 1.8 h, the Tmax [1] was 6.7 ± 2.3 h and the “t1/2β, elimination half-life” value [1] was 10.6 ± 2.8 h. For the same compound, the “apoptotic cell death (flow cytometry and cell viability assays)” value (“apoptotic cell death” below) (H460 cells [2]) was “No apoptosis was observed” and the “labelling ratio of H460 cells at the third generation” value (H460 cells [3]) was 3.89%.
For `CSCC[C@H](N)C(=O)N[C@@H](CC(=O)O)C(=O)N[C@@H](CCC(=O)O)C(=O)N[C@@H](CCCCN)C(=O)N[C@@H](C)C(=O)N[C@@H](CCC(N)=O)C(=O)N[C@@H](CCCCN)C(=O)N[C@@H](CC(=O)O)C(=O)N[C@@H](CCC(=O)O)C(=O)N[C@H](C(=O)N[C@@H](CC(=O)O)C(=O)N[C@@H](CCCCN)C(=O)N[C@@H](CC(C)C)C(=O)N[C@H](C(=O)N[C@@H](Cc1ccccc1)C(=O)N[C@@H](Cc1ccccc1)C(=O)N[C@@H](C)C(=O)N[C@@H](CCC(=O)O)C(=O)N[C@@H](CSC1=C(C=CC2=[N+](CCCCCC(=O)O)c3ccccc3C2(C)C)CCCC1=CC=C1N(CCCCCC(=O)O)c2ccccc2C1(C)C)C(=O)NCC(=O)O)C(C)C)C(C)C` [molecule 2] (H-MDEKAQKDEVDKLVFFAEC(X1)G-OH; N-terminus assumed), the AUC0→t [1] was 12.2 ± 1.9 mg·h/g, the “AUC0→∞” value [1] was 14.1 ± 2.2 mg·h/g and the CL [1] was 16.7 ± 2.5 mL/min/kg. For the same compound, the “MRT(0-t), mean retention time” value [1] was 15.2 ± 4.5 h, the Tmax [1] was 3.3 ± 1.2 h and the “t1/2β, elimination half-life” value [1] was 10.0 ± 1.9 h. The “apoptotic cell death” value (H460 cells [2]) was “No apoptosis was observed” and the “labelling ratio of H460 cells at the third generation” value (H460 cells [3]) was 6.83%.
In the case of `CC[C@H](C)[C@H](NC(=O)[C@@H]1CCCN1C(=O)[C@@H](NC(=O)[C@H](C)N)C(C)C)C(=O)N[C@@H](C)C(=O)N[C@@H](CCC(N)=O)C(=O)N[C@@H](CCCCN)C(=O)N[C@@H](CC(=O)O)C(=O)N[C@@H](CCC(=O)O)C(=O)N[C@H](C(=O)N[C@@H](CC(=O)O)C(=O)N[C@@H](CCCCN)C(=O)N[C@@H](CC(C)C)C(=O)N[C@H](C(=O)N[C@@H](Cc1ccccc1)C(=O)N[C@@H](Cc1ccccc1)C(=O)N[C@@H](C)C(=O)N[C@@H](CCC(=O)O)C(=O)N[C@@H](CSC1=C(C=CC2=[N+](CCCCCC(=O)O)c3ccccc3C2(C)C)CCCC1=CC=C1N(CCCCCC(=O)O)c2ccccc2C1(C)C)C(=O)NCC(=O)O)C(C)C)C(C)C` [molecule 1] (H-AVPIAQKDEVDKLVFFAEC(X1)G-OH), the “AUC0–48h in tumour of molecule 1 relative to 2” value [1] is reported as “six-fold”, the “AUC0–48h in tumour of molecule 1 relative to 3” value [1] is reported as “three-fold” and the AUC0→t [1] is reported as 71.2 ± 4.7 mg·h/g. The “AUC0→∞” value [1] was 145.9 ± 1.0 mg·h/g, the CL [1] was 1.3 ± 0.5 mL/min/kg and the “MRT(0-t), mean retention time” value [1] was 23.4 ± 0.2 h. The Tmax [1] was 4.0 ± 0 h, the “t1/2β, elimination half-life” value [1] was 69.3 ± 0 h and the “apoptotic cell death” value (H460 cells [2]) was “No apoptosis was observed”. For the same compound, the “labelling ratio of H460 cells at the first generation” value (H460 cells [3]; compared to untreated cells) was 100% and the “labelling ratio of H460 cells at the third generation” value (H460 cells [3]) was “above 16.4%”.
